Measurements: US20240415819A1, “MACROCYCLIC COMPOUNDS AS PROTEASOME SUBUNIT BETA TYPE-5 INHIBITORS” (Lead Discovery Center GmbH, priority 2021, published 2024)
Like-named read-outs stand apart in the source and are kept apart here.

Experiments:
[1] = molecular target: T1, β5 subunit of the human immunoproteasome (IPS) (Homo sapiens, UniProt P28062); test: β5 inhibition assay, human immunoproteasome (Suc-LLVY-AMC); assay type: biochemical; details: IC50 class, Suc-LLVY-AMC substrate
T1 construct: purchased Boston Biochem E-370
Outline: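 β5 activity is read as liberated AMC fluorescence (355/460 nm) after 4 h dark reaction at RT with 22.6 μM Suc-LLVY-AMC, stopped by 1 μM bortezomib. Beforehand, 1 nM human IPS and compound sat 10 min at RT in HEPES pH 7.5 buffer containing NaCl, 0.02% SDS and DTT.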

[2] = tested on: A549 (human lung carcinoma cell line); test: Glo assay of A549 cells (Table 3; ProteasomeGlo plating scheme); assay type: cell-based; details: Homo sapiens
Outline: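 Cells plated in 384 wells; compound, DMSO, staurosporine transferred by ECHO; 105 min, 37° C., 5% CO2; Proteasome-Glo (Suc-LLVY-Glo) reagent added; dark 10-15 min; luminescence; IC50 nM.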

[3] = A549 cells, read-out: PGLo A549

| SMILES | IC50 [1] | IC50 [2, 3] | IC50 ([2]; A549, read-out: PGLo A549 [nM]) |
| --- | --- | --- | --- |
| Cc1nc2cc(CCC(=O)N[C@H]3CC(=O)N4CCCC(CCOc5ccc(C)c(c5)CNC(=O)[C@H](CCc5ccccc5)NC3=O)C4)ccc2[nH]1 (stereo partly drawn) [Compound 174, 3-(2-methyl-1H-benzo[d]imidazol-6-yl)-N-((9S,12S)-5^4-methyl-8,11,14-trioxo-9-phenethyl-4-oxa-7,10-diaza-1(3,1)-piperidina-5(1,3)-benzenacyclotetradecaphane-12-yl)propanamide] | < 100 nM | < 100 nM | – |
| Cc1ccc2cc1CNC(=O)[C@H](CCc1ccccc1)NC(=O)[C@@H](NC(=O)CCc1ccc(Br)cc1)CC(=O)N1CCCC(CCO2)C1 (stereo partly drawn) [Compound 175, 3-(4-bromophenyl)-N-((9S,12S)-5^4-methyl-8,11,14-trioxo-9-phenethyl-4-oxa-7,10-diaza-1(3,1)-piperidina-5(1,3)-benzenacyclotetradecaphane-12-yl)propanamide] | < 100 nM | < 100 nM | – |
| Cc1ccc2cc1CNC(=O)[C@H](CCc1ccccc1)NC(=O)[C@@H](NC(=O)CCc1ccc(-c3ccccc3)cc1)CC(=O)N1CCCC(CCO2)C1 (stereo partly drawn) [Compound 176, 3-([1,1′-biphenyl]-4-yl)-N-((9S,12S)-5^4-methyl-8,11,14-trioxo-9-phenethyl-4-oxa-7,10-diaza-1(3,1)-piperidina-5(1,3)-benzenacyclotetradecaphane-12-yl)propanamide] | < 100 nM | < 100 nM | – |
| Cc1ccc2cc1CNC(=O)[C@H](CCc1ccccc1)NC(=O)[C@@H](NC(=O)CCc1ccccc1-c1ccccc1)CC(=O)N1CCCC(CCO2)C1 (stereo partly shown) [Compound 177] | < 100 nM | < 100 nM | – |
| Cc1ccc2cc1CNC(=O)[C@H](CCc1ccccc1)NC(=O)[C@@H](NC(=O)[C@@H](N)Cc1ccccc1)CC(=O)N1CCCC(CCO2)C1 (stereo partly drawn) [Compound 179, (2R)-2-amino-N-((9S,12S)-5^4-methyl-8,11,14-trioxo-9-phenethyl-4-oxa-7,10-diaza-1(3,1)-piperidina-5(1,3)-benzenacyclotetradecaphane-12-yl)-3-phenylpropanamide-] | < 100 nM | < 100 nM | – |
| C=CS(=O)(=O)N[C@H]1CC(=O)N2CCCC(CCOc3ccc(C)c(c3)CNC(=O)[C@H](CCc3ccccc3)NC1=O)C2 (stereo partly drawn) [Compound 180, N-((9S,12S)-5^4-methyl-8,11,14-trioxo-9-phenethyl-4-oxa-7,10-diaza-1(3,1)-piperidina-5(1,3)-benzenacyclotetradecaphane-12-yl)ethenesulfonamide] | < 100 nM | < 100 nM | – |
| C=CC(=O)N[C@H]1CC(=O)N2CCCC(CCOc3ccc(C)c(c3)CNC(=O)[C@H](CCc3ccccc3)NC1=O)C2 (stereo partly drawn) [Compound 181, N-((9S,12S)-5^4-methyl-8,11,14-trioxo-9-phenethyl-4-oxa-7,10-diaza-1(3,1)-piperidina-5(1,3)-benzenacyclotetradecaphane-12-yl)acrylamide] | < 100 nM | < 100 nM | – |
| Cc1ccc2cc1CNC(=O)[C@H](CCc1ccccc1)NC(=O)[C@@H](NC(=O)CCc1ccc3[nH]ccc3c1)CC(=O)N1CCCC(CCO2)C1 (stereo partly drawn) [Compound 182, 3-(1H-indol-5-yl)-N-((9S,12S)-5^4-methyl-8,11,14-trioxo-9-phenethyl-4-oxa-7,10-diaza-1(3,1)-piperidina-5(1,3)-benzenacyclotetradecaphane-12-yl)propanamide] | < 100 nM | < 100 nM | – |
| CC(=O)N[C@H]1CCCC(=O)N2CCOC(CCOc3ccc(C)c(c3)CNC(=O)[C@H](CCc3ccccc3)NC1=O)C2 (stereo partly drawn) [Compound 186, N-((9S,12S)-5^4-methyl-8,11,16-trioxo-9-phenethyl-4-oxa-7,10-diaza-1(2,4)-morpholina-5(1,3)-benzenacyclohexadecaphane-12-yl)acetamide] | < 100 nM | 100 to 500 nM | – |
| CC(=O)N[C@H]1CCCC(=O)N2CC3CC(Oc4ccc(C)c(c4)CNC(=O)[C@H](CCc4ccccc4)NC1=O)C3C2 (stereo partly drawn) [Compound 191, N-((11R,15S,7S,10S)-3^4-methyl-6,9,14-trioxo-7-phenethyl-2-oxa-13,5,8-triaza-1(7,3)-bicyclo[3.2.0]heptana-3(1,3)-benzenacyclotetradecaphane-10-yl)acetamide] | < 100 nM | 1000 to 5000 nM | – |
| Cc1ccc2cc1CNC(=O)[C@H](CCc1ccccc1)NC(=O)[C@@H](NC(=O)OCc1ccccc1)CCCC(=O)N1CCCC(CCO2)C1 (stereo partly drawn) [Compound 195, benzyl ((9S,12S)-5^4-methyl-8,11,16-trioxo-9-phenethyl-4-oxa-7,10-diaza-1(3,1)-piperidina-5(1,3)-benzenacyclohexadecaphane-12-yl)carbamate] | < 100 nM | 100 to 500 nM | – |
| Cc1ccc2cc1CNC(=O)[C@H](CCc1ccccc1)NC(=O)[C@@H](NC(=O)OCc1ccccc1)CCC(=O)N1CCCC(CCO2)C1 (stereo partly drawn) [Compound 199, benzyl ((9S,12S)-5^4-methyl-8,11,15-trioxo-9-phenethyl-4-oxa-7,10-diaza-1(3,1)-piperidina-5(1,3)-benzenacyclopentadecaphane-12-yl)carbamate] | < 100 nM | < 100 nM | – |
| CC(=O)N[C@H]1CC(=O)N2CCCC(CCOc3ccc(F)c(c3)CNC(=O)[C@H](CCc3ccccc3)NC1=O)C2 (stereo partly drawn) [Compound 205, N-((9S,12S)-5^4-fluoro-8,11,14-trioxo-9-phenethyl-4-oxa-7,10-diaza-1(3,1)-piperidina-5(1,3)-benzenacyclotetradecaphane-12-yl)acetamide] | < 100 nM | < 100 nM | – |
| COc1ccc2cc1CNC(=O)[C@H](CCc1ccccc1)NC(=O)[C@@H](NC(C)=O)CC(=O)N1CCCC(CCO2)C1 (stereo partly drawn) [Compound 211, N-((9S,12S)-5^4-methoxy-8,11,14-trioxo-9-phenethyl-4-oxa-7,10-diaza-1(3,1)-piperidina-5(1,3)-benzenacyclotetradecaphane-12-yl)acetamide] | < 100 nM | 500 to 1000 nM | – |
| CC(=O)N[C@H]1CCCC(=O)N2CCCC(CCOc3ccc(C)c(c3)CNC(=O)[C@H](CCc3ccccc3)NC1=O)C2 (stereo partly drawn) [Compound 213, N-((9S,12S)-5^4-methyl-8,11,16-trioxo-9-phenethyl-4-oxa-7,10-diaza-1(3,1)-piperidina-5(1,3)-benzenacyclohexadecaphane-12-yl)acetamide] | < 100 nM | 100 to 500 nM | – |
| CC(=O)N[C@H]1CCC(=O)N2CCCC(CCOc3ccc(C)c(c3)CNC(=O)[C@H](CCc3ccccc3)NC1=O)C2 (stereo partly drawn) [Compound 215, N-((9S,12S)-5^4-methyl-8,11,15-trioxo-9-phenethyl-4-oxa-7,10-diaza-1(3,1)-piperidina-5(1,3)-benzenacyclopentadecaphane-12-yl)acetamide] | < 100 nM | 100 to 500 nM | – |
| Cc1ccc2cc1CNC(=O)[C@H](CCc1ccccc1)NC(=O)[C@@H](NS(=O)(=O)Cc1ccccc1)CC(=O)N1CCCC(CCO2)C1 (stereo partly drawn) [Compound 216, N-((9S,12S)-5^4-methyl-8,11,14-trioxo-9-phenethyl-4-oxa-7,10-diaza-1(3,1)-piperidina-5(1,3)-benzenacyclotetradecaphane-12-yl)-1-phenylmethanesulfonamide] | < 100 nM | 100 to 500 nM | – |
| Cc1ccc2cc1CNC(=O)[C@H](CCc1ccccc1)NC(=O)[C@@H](NS(=O)(=O)CCc1ccccc1)CC(=O)N1CCCC(CCO2)C1 (stereo partly drawn) [Compound 217, N-((9S,12S)-5^4-methyl-8,11,14-trioxo-9-phenethyl-4-oxa-7,10-diaza-1(3,1)-piperidina-5(1,3)-benzenacyclotetradecaphane-12-yl)-2-phenylethane-1-sulfonamide] | < 100 nM | < 100 nM | – |
| COCCOCCOCCOCCOCCC(=O)N[C@H]1CC(=O)N2CCCC(CCOc3ccc(C)c(c3)CNC(=O)[C@H](CCc3ccccc3)NC1=O)C2 (stereo partly drawn) [Compound 219, N-((9S,12S)-5^4-methyl-8,11,14-trioxo-9-phenethyl-4-oxa-7,10-diaza-1(3,1)-piperidina-5(1,3)-benzenacyclotetradecaphane-12-yl)-2,5,8,11,14-pentaoxaheptadecan-17-amide] | < 100 nM | < 100 nM | – |
| COCCOCCOCCOC(=O)N[C@H]1CC(=O)N2CCCC(CCOc3ccc(C)c(c3)CNC(=O)[C@H](CCc3ccccc3)NC1=O)C2 (stereo partly drawn) [Compound 220, 2-(2-(2-methoxyethoxy)ethoxy)ethyl ((9R,12R)-5^4-methyl-8,11,14-trioxo-9-phenethyl-4-oxa-7,10-diaza-1(3,1)-piperidina-5(1,3)-benzenacyclotetradecaphane-12-yl)carbamate] | < 100 nM | – | < 100 nM |
| CC(=O)N[C@H]1CC(=O)N2CCOC(CCOc3ccc(C)c(c3)CNC(=O)[C@H](CCc3ccccc3)NC1=O)C2 (stereo partly drawn) [Compound 258, N-((9S,12S)-5^4-methyl-8,11,14-trioxo-9-phenethyl-4-oxa-7,10-diaza-1(2,4)-morpholina-5(1,3)-benzenacyclotetradecaphane-12-yl)acetamide] | < 100 nM | 500 to 1000 nM | – |
| CC(=O)N[C@H]1CCCC(=O)N2CCC2(C)COc2ccc(C)c(c2)CNC(=O)[C@H](CCc2ccccc2)NC1=O (stereo partly drawn) [Compound 281, N-((8S,11S)-1^2,4^4-dimethyl-7,10,15-trioxo-8-phenethyl-3-oxa-6,9-diaza-1(2,1)-azetidina-4(1,3)-benzenacyclopentadecaphane-11-yl)acetamide] | 1000 to 5000 nM | 1000 to 5000 nM | – |
| CC(=O)N[C@H]1CCC(=O)N(C)CCCCOc2ccc(C)c(c2)CNC(=O)[C@H](CCc2ccccc2)NC1=O [Compound 282, N-((11S,14S)-1^4,7-dimethyl-8,12,15-trioxo-1^4-phenethyl-2-oxa-7,13,16-triaza-1(1,3)-benzenacycloheptadecaphane-11-yl)acetamide] | 500 to 1000 nM | > 5000 nM | – |
